Measured values as given in patent US20210395248A1, “INHIBITORS OF HUMAN IMMUNODEFICIENCY VIRUS REPLICATION” (ViiV HEALTHCARE UK (NO.5) LIMITED, priority 2018, published 2021).
Read-outs that look alike come from different tables or passages of the source.

How the values were obtained:
[1] = Compound cytotoxicity, XTT-based colorimetric assay; format: cell-based; settings: human
Protocol: Compound cytotoxicity and the corresponding CC50 values were determined using the same protocol as described in the antiviral assay except that uninfected cells were used. Cytotoxicity was assessed on day 4 in uninfected MT2 cells by using a XTT (2,3-bis [2-Methoxy-4-nitro-5-sulfophenyl]-2H-tetrazolium-5-carboxyanilide inner salt)-based colorimetric assay (Sigma-Aldrich, St Louis, Mo.).

[2] = test system: recombinant NL4-3 virus (Renilla luciferase reporter) in MT-2 cells; experiment: HIV cell culture assay (antiviral activity, luciferase readout in infected MT-2 cells); format: cell-based; settings: NL43
Protocol: HIV cell culture assay—MT-2 cells, 293T cells and the proviral DNA clone of NL4-3 virus were obtained from the NIH AIDS Research and Reference Reagent Program. MT-2 cells were propagated in RPMI 1640 media supplemented with 10% heat inactivated fetal bovine serum (FBS), […]. The 293T cells were propagated in DMEM media supplemented with 10% heat inactivated FBS, […]. A recombinant NL4-3 proviral clone, in which a section of the nef gene was replaced with the Renilla luciferase gene, was used to make the reference virus used in these studies. The recombinant virus was prepared through transfection of the recombinant NL4-3 proviral clone into 293T cells using Transit-293 Transfection Reagent from Mirus Bio LLC (Madison, Wis.). Supernatent was harvested after 2-3 days and the amount of virus present was titered in MT-2 cells using luciferase enzyme activity as a marker by measuring luciferase enzyme activity. Luciferase was quantitated using the EnduRen Live Cell Substrate from Promega (Madison, Wis.). Antiviral activities of compounds toward the recombinant virus were quantified by measuring luciferase activity in MT-2 cells infected for 4-5 days with the recombinant virus in the presence of serial dilutions of the compound.
The 50% effective concentration (EC50) was calculated by using the exponential form of the median effect equation where (Fa)=1/[1+(EC50/drug conc.)m] (Johnson V A, Byington RT. Infectivity Assay. In Techniques in HIV Research, ed. Aldovini A, Walker B D. 71-76. New York: Stockton Press. 1990). The 50% inhibitory concentration (EC50) was calculated by using the exponential form of the median effect equation where percent inhibition=1/[1+(EC50/drug concentration)m], where m is a parameter that reflects the slope of the concentration-response curve.

[3] = uninfected MT2 cells, day 4, XTT, read-out: CC50

SMILES | CC50 at 4 days [1, 3] [nM] | EC50 [2] [nM] | CC50 at 4 days [1] [nM]
C[C@@H]1CN(c2ccc3c(=O)n(-c4ccc(Cl)c5c(NS(C)(=O)=O)nn(C)c45)c([C@H](Cc4cc(F)cc(F)c4)NC(=O)Cn4nc(C(F)(F)F)c5c4C(F)(F)[C@@H]4C[C@H]54)nc3n2)C[C@H](C)O1 (atropisomer, axis not shown; (aR)) [Example 2, N—((S)-1-(3-(4-chloro-1-methyl-3-(methylsulfonamido)-1H-indazol-7-yl)-7-((2S,6R)-2,6-dimethylmorpholino)-4-oxo-3,4-dihydropyrido[2,3-d]pyrimidin-2-yl)-2-(3,5-difluorophenyl)ethyl)-2-((3bS,4aR)-5,5-difluoro-3-(trifluoromethyl)-3b,4,4a,5-tetrahydro-1H-cyclopropa[3,4]cyclopenta[1,2-c]pyrazol-1-yl)acetamide] | > 500 | 0.036 | –
C[C@@H]1CN(c2ccc3c(=O)n(-c4ccc(Cl)c5c(NS(C)(=O)=O)nn(CC(F)F)c45)c([C@H](Cc4cc(F)cc(F)c4)NC(=O)Cn4nc(C(F)F)c5c4C(F)(F)[C@@H]4C[C@H]54)nc3n2)C[C@H](C)O1 (atropisomer, axis not shown; (aR)) [Example 3, N—((S)-1-(3-(4-chloro-1-(2,2-difluoroethyl)-3-(methylsulfonamido)-1H-indazol-7-yl)-7-((2S,6R)-2,6-dimethylmorpholino)-4-oxo-3,4-dihydropyrido[2,3-d]pyrimidin-2-yl)-2-(3,5-difluorophenyl)ethyl)-2-((3bS,4aR)-3-(difluoromethyl)-5,5-difluoro-3b,4,4a,5-tetrahydro-1H-cyclopropa[3,4]cyclopenta[1,2-c]pyrazol-1-yl)acetamide] | > 500 | 0.032 | –
C[C@@H]1CN(c2ccc3c(=O)n(-c4ccc(Cl)c5c(NS(C)(=O)=O)nn(CC(F)F)c45)c([C@H](Cc4cc(F)cc(F)c4)NC(=O)Cn4nc(C(F)(F)F)c5c4C(F)(F)[C@@H]4C[C@H]54)nc3n2)C[C@H](C)O1 (atropisomer, axis not shown; (aR)) [Example 4, N—((S)-1-(3-(4-chloro-1-(2,2-difluoroethyl)-3-(methylsulfonamido)-1H-indazol-7-yl)-7-((2S,6R)-2,6-dimethylmorpholino)-4-oxo-3,4-dihydropyrido[2,3-d]pyrimidin-2-yl)-2-(3,5-difluorophenyl)ethyl)-2-((3bS,4aR)-5,5-difluoro-3-(trifluoromethyl)-3b,4,4a,5-tetrahydro-1H-cyclopropa[3,4]cyclopenta[1,2-c]pyrazol-1-yl)acetamide] | > 500 | 0.031 | –
C[C@@H]1CN(c2ccc3c(=O)n(-c4ccc(Cl)c5c(NS(=O)(=O)C6CC6)nn(CC(F)F)c45)c([C@H](Cc4cc(F)cc(F)c4)NC(=O)Cn4nc(C(F)F)c5c4C(F)(F)[C@@H]4C[C@H]54)nc3n2)C[C@H](C)O1 (atropisomer, axis not shown; (aR)) [Example 5, N—((S)-1-(3-(4-chloro-3-(cyclopropanesulfonamido)-1-(2,2-difluoroethyl)-1H-indazol-7-yl)-7-((2S,6R)-2,6-dimethylmorpholino)-4-oxo-3,4-dihydropyrido[2,3-d]pyrimidin-2-yl)-2-(3,5-difluorophenyl)ethyl)-2-((3bS,4aR)-3-(difluoromethyl)-5,5-difluoro-3b,4,4a,5-tetrahydro-1H-cyclopropa[3,4]cyclopenta[1,2-c]pyrazol-1-yl)acetamide] | > 500 | 0.03 | –
C[C@@H]1CN(c2ccc3c(=O)n(-c4ccc(Cl)c5c(NS(=O)(=O)C6CC6)nn(CC(F)F)c45)c([C@H](Cc4cc(F)cc(F)c4)NC(=O)Cn4nc(C(F)(F)F)c5c4C(F)(F)[C@@H]4C[C@H]54)nc3n2)C[C@H](C)O1 (atropisomer, axis not shown; (aR)) [Example 6, N—((S)-1-(3-(4-chloro-3-(cyclopropanesulfonamido)-1-(2,2-difluoroethyl)-1H-indazol-7-yl)-7-((2S,6R)-2,6-dimethylmorpholino)-4-oxo-3,4-dihydropyrido[2,3-d]pyrimidin-2-yl)-2-(3,5-difluorophenyl)ethyl)-2-((3bS,4aR)-5,5-difluoro-3-(trifluoromethyl)-3b,4,4a,5-tetrahydro-1H-cyclopropa[3,4]cyclopenta[1,2-c]pyrazol-1-yl)acetamide] | > 500 | 0.04 | –
C[C@@H]1CN(c2ccc3c(=O)n(-c4ccc(Cl)c5c(NS(C)(=O)=O)nn(CC(F)(F)F)c45)c([C@H](Cc4cc(F)cc(F)c4)NC(=O)Cn4nc(C(F)F)c5c4C(F)(F)[C@@H]4C[C@H]54)nc3n2)C[C@H](C)O1 (atropisomer, axis not shown; (aR)) [Example 7, N—((S)-1-(3-(4-chloro-3-(methylsulfonamido)-1-(2,2,2-trifluoroethyl)-1H-indazol-7-yl)-7-((2S,6R)-2,6-dimethylmorpholino)-4-oxo-3,4-dihydropyrido[2,3-d]pyrimidin-2-yl)-2-(3,5-difluorophenyl)ethyl)-2-((3bS,4aR)-3-(difluoromethyl)-5,5-difluoro-3b,4,4a,5-tetrahydro-1H-cyclopropa[3,4]cyclopenta[1,2-c]pyrazol-1-yl)acetamide] | > 500 | 0.028 | –
C[C@@H]1CN(c2ccc3c(=O)n(-c4ccc(Cl)c5c(NS(C)(=O)=O)nn(CC(F)(F)F)c45)c([C@H](Cc4cc(F)cc(F)c4)NC(=O)Cn4nc(C(F)(F)F)c5c4C(F)(F)[C@@H]4C[C@H]54)nc3n2)C[C@H](C)O1 (atropisomer, axis not shown; (aR)) [Example 8, N—((S)-1-(3-(4-chloro-3-(methylsulfonamido)-1-(2,2,2-trifluoroethyl)-1H-indazol-7-yl)-7-((2S,6R)-2,6-dimethylmorpholino)-4-oxo-3,4-dihydropyrido[2,3-d]pyrimidin-2-yl)-2-(3,5-difluorophenyl)ethyl)-2-((3bS,4aR)-5,5-difluoro-3-(trifluoromethyl)-3b,4,4a,5-tetrahydro-1H-cyclopropa[3,4]cyclopenta[1,2-c]pyrazol-1-yl)acetamide] | > 500 | 0.032 | –
CC(F)CCNc1ccc2c(=O)n(-c3ccc(Cl)c4c(NS(C)(=O)=O)nn(C)c34)c([C@H](Cc3cc(F)cc(F)c3)NC(=O)Cn3nc(C(F)F)c4c3C(F)(F)[C@@H]3C[C@H]43)nc2n1 (stereo partly drawn) [Example 9, N-((1S)-1-((3P)-3-(4-chloro-1-methyl-3-(methylsulfonamido)-1H-indazol-7-yl)-7-((3-fluorobutyl)amino)-4-oxo-3,4-dihydropyrido[2,3-d]pyrimidin-2-yl)-2-(3,5-difluorophenyl)ethyl)-2-((3bS,4aR)-3-(difluoromethyl)-5,5-difluoro-3b,4,4a,5-tetrahydro-1H-cyclopropa[3,4]cyclopenta[1,2-c]pyrazol-1-yl)acetamide] | > 100 | 0.046 | –
CCN(CCC(F)(F)F)c1ccc2c(=O)n(-c3ccc(Cl)c4c(NS(C)(=O)=O)nn(C)c34)c([C@H](Cc3cc(F)cc(F)c3)NC(=O)Cn3nc(C(F)F)c4c3C(F)(F)[C@@H]3C[C@H]43)nc2n1 [Example 10, N—((S)-1-((3P)-3-(4-chloro-1-methyl-3-(methylsulfonamido)-1H-indazol-7-yl)-7-(ethyl(3,3,3-trifluoropropyl)amino)-4-oxo-3,4-dihydropyrido[2,3-d]pyrimidin-2-yl)-2-(3,5-difluorophenyl)ethyl)-2-((3bS,4aR)-3-(difluoromethyl)-5,5-difluoro-3b,4,4a,5-tetrahydro-1H-cyclopropa[3,4]cyclopenta[1,2-c]pyrazol-1-yl)acetamide] | > 100 | 0.037 | –
Cn1nc(NS(C)(=O)=O)c2c(Cl)ccc(-n3c([C@H](Cc4cc(F)cc(F)c4)NC(=O)Cn4nc(C(F)F)c5c4C(F)(F)[C@@H]4C[C@H]54)nc4nc(N5C6CCC5COC6)ccc4c3=O)c21 [Example 20, N-((1S)-1-(7-(3-oxa-8-azabicyclo[3.2.1]octan-8-yl)-(3P)-3-(4-chloro-1-methyl-3-(methylsulfonamido)-1H-indazol-7-yl)-4-oxo-3,4-dihydropyrido[2,3-d]pyrimidin-2-yl)-2-(3,5-difluorophenyl)ethyl)-2-((3bS,4aR)-3-(difluoromethyl)-5,5-difluoro-3b,4,4a,5-tetrahydro-1H-cyclopropa[3,4]cyclopenta[1,2-c]pyrazol-1-yl)acetamide] | – | 0.05 | > 100
